According to PubChem BioAssay AID192 (DTP/NCI, 2004):
Where “and” joins values, the source holds several entries; their conditions need not be identical. Equal values may be shown once. Inconclusive results and toxic doses are left out.

System: BDF1 mice, B16 melanoma ip, median survival T/C
Assay: NCI In Vivo Anticancer Drug Screen. Data for tumor model B16 Melanoma (intraperitoneal) in B6D2F1 (BDF1) mice
Conditions: endpoint: median survival time, higher = longer survival
Procedure: The antitumor activity of compounds was measured in mice bearing transplantable tumors. Survival or tumor size were measured and the results are expressed as the measurement made in the treated group (T) divided by the measurement made in the vehicle treated control group (C). The tumor model used in this assay is B16 Melanoma (intraperitoneal) in B6D2F1 (BDF1) mice

[1] = dose: 6.25 mg/kg/injection, schedule: Q01DX009 (ip), vehicle: saline with Tween-80
[2] = dose: 12.5 mg/kg/injection, schedule: Q01DX009 (ip), vehicle: saline with Tween-80
[3] = dose: 25.0 mg/kg/injection, schedule: Q01DX009 (ip), vehicle: saline with Tween-80
[4] = dose: 100.0 mg/kg/injection, schedule: Q01DX009 (ip), vehicle: saline with Tween-80
[5] = dose: 100.0 mg/kg/injection, schedule: Q04DX003 (ip), vehicle: Klucel (hydroxypropylcellulose) (HPC)
[6] = dose: 200.0 mg/kg/injection, schedule: Q04DX003 (ip), vehicle: Klucel (hydroxypropylcellulose) (HPC)
[7] = dose: 400.0 mg/kg/injection, schedule: Q04DX003 (ip), vehicle: Klucel (hydroxypropylcellulose) (HPC)
[8] = dose: 6.25 mg/kg/injection, schedule: Q01DX009 (ip), vehicle: saline
[9] = dose: 12.5 mg/kg/injection, schedule: Q01DX009 (ip), vehicle: saline
[10] = dose: 100.0 mg/kg/injection, schedule: Q01DX009 (ip), vehicle: Klucel (hydroxypropylcellulose) (HPC)
[11] = dose: 200.0 mg/kg/injection, schedule: Q01DX009 (ip), vehicle: Klucel (hydroxypropylcellulose) (HPC)
[12] = dose: 400.0 mg/kg/injection, schedule: Q01DX009 (ip), vehicle: Klucel (hydroxypropylcellulose) (HPC)
[13] = dose: 3.12 mg/kg/injection, schedule: Q01DX009 (ip), vehicle: Klucel (hydroxypropylcellulose) (HPC)
[14] = dose: 6.25 mg/kg/injection, schedule: Q01DX009 (ip), vehicle: Klucel (hydroxypropylcellulose) (HPC)
[15] = dose: 25.0 mg/kg/injection, schedule: Q01DX009 (ip), vehicle: Klucel (hydroxypropylcellulose) (HPC)
[16] = dose: 50.0 mg/kg/injection, schedule: Q01DX009 (ip), vehicle: Klucel (hydroxypropylcellulose) (HPC)
[17] = dose: 100.0 mg/kg/injection, schedule: Q01DX009 (ip), vehicle: other
[18] = dose: 25.0 mg/kg/injection, schedule: Q01DX009 (ip), vehicle: saline
[19] = dose: 50.0 mg/kg/injection, schedule: Q01DX009 (ip), vehicle: saline
[20] = dose: 100.0 mg/kg/injection, schedule: Q01DX009 (ip), vehicle: saline
[21] = dose: 12.5 mg/kg/injection, schedule: Q01DX009 (ip), vehicle: Klucel (hydroxypropylcellulose) (HPC)

Compound: CO[C@@]12[C@@H]3N[C@@H]3CN1C1=C(C(=O)C(NCc3ccco3)=C(C)C1=O)[C@@H]2COC(N)=O
- T/C (dose: 0.13 mg/kg/injection, schedule: Q01DX001 (ip), vehicle: distilled water + Tween-80): 96 % of control
- T/C (dose: 0.25 mg/kg/injection, schedule: Q01DX001 (ip), vehicle: distilled water + Tween-80): 101 % of control
- T/C (dose: 0.5 mg/kg/injection, schedule: Q01DX001 (ip), vehicle: distilled water + Tween-80): 111 % of control
- T/C (dose: 1.0 mg/kg/injection, schedule: Q01DX001 (ip), vehicle: distilled water + Tween-80): 123 % of control
- T/C (dose: 6.0 mg/kg/injection, schedule: Q04DX003 (ip), vehicle: distilled water + Tween-80): 205 % of control
- T/C (dose: 12.0 mg/kg/injection, schedule: Q04DX003 (ip), vehicle: distilled water + Tween-80): 305 % of control
- T/C (dose: 24.0 mg/kg/injection, schedule: Q04DX003 (ip), vehicle: distilled water + Tween-80): 315 % of control

Compound: COC(=Nc1ccccc1)SSC(C)C
- T/C [1]: 113 % of control
- T/C [2]: 108 % of control
- T/C [3]: 102 % of control
- T/C (dose: 50.0 mg/kg/injection, schedule: Q01DX009 (ip), vehicle: saline with Tween-80): 100 % of control
- T/C [4]: 97 % of control

Compound: CCNC(=O)Nc1ccc(C)cc1C
- T/C [5]: 106 % of control
- T/C [6]: 96 % of control
- T/C [7]: 106 % of control

Compound: Clc1ccc2c3c(cccc13)CC2
- T/C (dose: 5.0 mg/kg/injection, schedule: Q01DX009 (ip), vehicle: saline with Tween-80): 87 % of control
- T/C (dose: 10.0 mg/kg/injection, schedule: Q01DX009 (ip), vehicle: saline with Tween-80): 92 % of control
- T/C (dose: 20.0 mg/kg/injection, schedule: Q01DX009 (ip), vehicle: saline with Tween-80): 87 % of control
- T/C (dose: 40.0 mg/kg/injection, schedule: Q01DX009 (ip), vehicle: saline with Tween-80): 87 % of control

Compound: O=C(O)c1c(Cl)cccc1Cl
- T/C [2]: 105 % of control
- T/C [3]: 95 % of control
- T/C (dose: 25.0 mg/kg/injection, schedule: Q04DX003 (ip), vehicle: saline with Tween-80): 105 % of control
- T/C (dose: 50.0 mg/kg/injection, schedule: Q04DX003 (ip), vehicle: saline with Tween-80): 97 % of control

Compound: O=[N+]([O-])c1ccc2scc3c4ccccc4nc-3c2c1
- T/C [8]: 90 % of control
- T/C [9]: 99 % of control

Compound: CNC(Cc1ccccc1)c1ccc(OC)c(OC)c1 (configuration not stated)
- T/C [10]: 100 % of control
- T/C [11]: 100 % of control
- T/C [12]: 103 % of control

Compound: CC(=O)C1=CC(=O)NC(=O)C1C(=O)CC(C)C (configuration not stated)
- T/C (dose: 1.56 mg/kg/injection, schedule: Q01DX009 (ip), vehicle: Klucel (hydroxypropylcellulose) (HPC)): 104 % of control
- T/C [13]: 89 % of control and 95 % of control
- T/C [14]: 92 % of control

Compound: COc1cccc2c1C(=O)c1c(O)c3c(c(O)c1C2=O)C[C@@](O)(C(=O)COC(=O)Cc1ccccc1)C[C@@H]3OC1CC(N)C(O)C(C)O1 (some centres not stated)
- T/C (dose: 0.5 mg/kg/injection, schedule: Q01DX009 (ip), vehicle: saline with Tween-80): 151 % of control and 186 % of control
- T/C (dose: 1.0 mg/kg/injection, schedule: Q01DX009 (ip), vehicle: saline with Tween-80): 165 % of control and 186 % of control
- T/C (dose: 2.0 mg/kg/injection, schedule: Q01DX009 (ip), vehicle: saline with Tween-80): 172 % of control and 232 % of control

Compound: CCCCCCCCCCCCCC(=O)CCC
- T/C [15]: 105 % of control
- T/C [16]: 101 % of control
- T/C [17]: 88 % of control

Compound: COc1cccc2c1C(=O)c1c(O)c3c(c(O)c1C2=O)C[C@@](O)(C(C)=O)C[C@@H]3OC1CC(N(Cc2ccccc2)Cc2ccccc2)C(O)C(C)O1 (some centres not stated)
- T/C (dose: 12.5 mg/kg/injection, schedule: Q01DX001 (ip), vehicle: water): 103 % of control
- T/C (dose: 25.0 mg/kg/injection, schedule: Q01DX001 (ip), vehicle: water): 113 % of control
- T/C (dose: 100.0 mg/kg/injection, schedule: Q01DX001 (ip), vehicle: water): 150 % of control

Compound: Cc1ccc(Oc2ccc3cc[n+](C)cc3c2)cc1
- T/C [8]: 98 % of control
- T/C [9]: 100 % of control
- T/C [18]: 86 % of control

Compound: OCCN(CCO)CN(CO)c1nc(N(CO)CN(CCO)CCO)nc(N(CO)CN(CCO)CCO)n1
- T/C (dose: 100.0 mg/kg/injection, schedule: Q04DX003 (ip), vehicle: saline): 120 % of control
- T/C (dose: 200.0 mg/kg/injection, schedule: Q04DX003 (ip), vehicle: saline): 123 % of control
- T/C (dose: 400.0 mg/kg/injection, schedule: Q04DX003 (ip), vehicle: saline): 112 % of control

Compound: Cc1ccc(C(=O)/C=C/c2ccccc2)cc1
- T/C (dose: 25.0 mg/kg/injection, schedule: Q01DX009 (ip), vehicle: other): 100 % of control
- T/C (dose: 50.0 mg/kg/injection, schedule: Q01DX009 (ip), vehicle: other): 105 % of control
- T/C [17]: 107 % of control
- T/C (dose: 200.0 mg/kg/injection, schedule: Q01DX009 (ip), vehicle: other): 100 % of control

Compound: COc1c(Cl)cc2c(c1OC)N(C)C1N3C(=O)C4(C)SSC3(C(=O)N4C)C(O)C21O (configuration not stated)
- T/C (dose: 0.12 mg/kg/injection, schedule: Q01DX009 (ip), vehicle: Klucel (hydroxypropylcellulose) (HPC)): 103 % of control
- T/C (dose: 0.25 mg/kg/injection, schedule: Q01DX009 (ip), vehicle: Klucel (hydroxypropylcellulose) (HPC)): 106 % of control

Compound: CCC(CC)N=C(N)N
- T/C [18]: 101 % of control
- T/C [19]: 98 % of control
- T/C [20]: 112 % of control

Compound: NC(=S)Nc1cccc(Cl)c1
- T/C [21]: 106 % of control
- T/C [15]: 102 % of control
- T/C [16]: 100 % of control

Compound: S=C([S][Sn]([c]1ccccc1)([c]1ccccc1)[c]1ccccc1)N1CCCCC1
- T/C (dose: 3.12 mg/kg/injection, schedule: Q01DX009 (ip), vehicle: saline with Tween-80): 100 % of control
- T/C [1]: 107 % of control
- T/C [2]: 103 % of control
- T/C [3]: 99 % of control

Compound: CCCCCCCC(O)CCC (configuration not stated)
- T/C [10]: 105 % of control
- T/C [11]: 97 % of control
- T/C [12]: 93 % of control

Compound: Cc1ccc(NC(=S)N(C)C)cc1Cl
- T/C [10]: 100 % of control
- T/C [5]: 104 % of control
- T/C [11]: 88 % of control
- T/C [6]: 90 % of control
- T/C [12]: 88 % of control
- T/C [7]: 95 % of control

Compound: C=C1CC2(OC1=O)C(=O)N(C)c1ccc(I)cc12 (configuration not stated)
- T/C [8]: 100 % of control and 104 % of control
- T/C [9]: 101 % of control and 112 % of control
- T/C [18]: 95 % of control and 104 % of control
- T/C [19]: 110 % of control

Compound: CC/C(C)=C(/C(=O)O)c1ccccc1
- T/C [4]: 110 % of control
- T/C (dose: 200.0 mg/kg/injection, schedule: Q01DX009 (ip), vehicle: saline with Tween-80): 94 % of control

Compound: CCCCCCCCC(=O)NCCOC
- T/C [16]: 104 % of control
- T/C [10]: 101 % of control
- T/C [11]: 101 % of control

Compound: Cn1c(=O)c2c(ncn2CCO)n(C)c1=O
- T/C [20]: 120 % of control
- T/C (dose: 200.0 mg/kg/injection, schedule: Q01DX009 (ip), vehicle: saline): 122 % of control

Compound: CN(C)C(=O)c1cccc(NC(=O)NCc2cccc(N3C(N)=NC(N)=NC3(C)C)c2)c1
- T/C [9]: 107 % of control
- T/C [18]: 117 % of control
- T/C [19]: 102 % of control

Compound: CCC[CH2][Sn]([Cl])([CH2]CCC)[S]C(=S)NCCNC(=S)[S][Sn]([Cl])([CH2]CCC)[CH2]CCC
- T/C [13]: 94 % of control
- T/C [14]: 96 % of control
- T/C [21]: 101 % of control

Compound: CCC(C)C1NC(=O)C(NC(=O)c2c3nc4c(C(=O)NC5C(=O)NC(C(C)CC)C(=O)N6CCCC6C(=O)N(C)CC(=O)N(C)C(C(C)C)C(=O)OC5C)cc(N)c(C)c4oc-3c(C)c(=O)c2N)C(C)OC(=O)C(C(C)C)N(C)C(=O)CN(C)C(=O)C2CCCN2C1=O (configuration not stated)
- T/C (dose: 12.5 micrograms/kg/injection, schedule: Q01DX009 (ip), vehicle: water): 110 % of control
- T/C (dose: 25.0 micrograms/kg/injection, schedule: Q01DX009 (ip), vehicle: water): 104 % of control
- T/C (dose: 118.0 micrograms/kg/injection, schedule: Q01DX009 (ip), vehicle: water): 161 % of control
- T/C (dose: 400.0 micrograms/kg/injection, schedule: Q01DX009 (ip), vehicle: water): 159 % of control

Compound: Cc1ccn(C(N)=O)n1
- T/C [10]: 93 % of control
- T/C [11]: 109 % of control

Compound: CC(C)(O)C(C)(O)c1cccc(Cl)c1 (configuration not stated)
- T/C [21]: 107 % of control
- T/C [15]: 102 % of control
- T/C [16]: 88 % of control
